Test results reported in the supplement of paper PMC10307832.

What was measured:
Assay in all cases: relative viability (nuclei count vs DMSO), 5 days (fraction); higher = more cells survive
[1] = system: NCI-H1299
How it was run: (§1)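 Relative viability was taken as the ratio of nuclei in treated wells to nuclei in vehicle wells. Lung cancer cell lines in 1536-well plates received compounds by pin tool one day after seeding, either one drug alone or a fixed anchor-drug dose plus five library-drug doses (not always all listed) in √10 steps. Nuclei were counted on 4× images after 5 days of treatment, and values are medians of duplicate plates.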

[2] = system: A549
How it was run: as §1

[3] = system: NCI-H520
How it was run: as §1

[4] = system: IA-LM
How it was run: as §1

[5] = system: Calu-6
How it was run: as §1

[6] = system: NCI-H1703
How it was run: as §1

[7] = system: EBC-1
How it was run: as §1

Row | Compound | relative viability ([1]; first compound 0.04 µM) | relative viability ([1]; first compound 0.1265 µM) | relative viability ([1]; first compound 0.4 µM) | relative viability ([1]; first compound 4 µM) | relative viability ([2]; first compound 0.04 µM) | relative viability ([2]; first compound 0.1265 µM) | relative viability ([2]; first compound 0.4 µM) | relative viability ([2]; first compound 4 µM) | relative viability ([3]; first compound 0.04 µM) | relative viability ([3]; first compound 0.1265 µM) | relative viability ([3]; first compound 0.4 µM) | relative viability ([3]; first compound 4 µM) | relative viability ([4]; first compound 0.04 µM) | relative viability ([4]; first compound 0.1265 µM) | relative viability ([4]; first compound 0.4 µM) | relative viability ([4]; first compound 4 µM) | relative viability ([5]; first compound 0.04 µM) | relative viability ([5]; first compound 0.1265 µM) | relative viability ([5]; first compound 0.4 µM) | relative viability ([5]; first compound 4 µM) | other results
1 | C[C@@H]1CN(CC(=O)Nc2ccc3c(c2)Cc2cccc(-c4cc(=O)cc(N5CCOCC5)o4)c2S3)C[C@H](C)O1 + CC1(C)CCC(c2ccc(Cl)cc2)=C(CN2CCN(c3ccc(C(=O)NS(=O)(=O)c4ccc(N[C@H](CCN5CCOCC5)CSc5ccccc5)c(S(=O)(=O)C(F)(F)F)c4)cc3)CC2)C1 [Navitoclax] (partner 0.5 µM) | 1.03 | 1.04 | 1.01 | 0.941 | 1.3 | 1.2 | 1.23 | 0.912 | 1.2 | 1.03 | 0.888 | 1.08 | 0.759 | 0.787 | 0.669 | 0.317 | 0.871 | 0.831 | 0.889 | 0.54 | relative viability ([6]; first compound 0.04 µM): 1.42; relative viability ([6]; first compound 0.1265 µM): 1.45; relative viability ([6]; first compound 0.4 µM): 0.911; relative viability ([6]; first compound 4 µM): 0.808; relative viability ([7]; first compound 0.04 µM): 0.405; relative viability ([7]; first compound 0.1265 µM): 0.432; relative viability ([7]; first compound 0.4 µM): 0.287; relative viability ([7]; first compound 4 µM): 0.216
2 | C[C@@H]1CN(CC(=O)Nc2ccc3c(c2)Cc2cccc(-c4cc(=O)cc(N5CCOCC5)o4)c2S3)C[C@H](C)O1 + CS(=O)(=O)CCNCc1ccc(-c2ccc3ncnc(Nc4ccc(OCc5cccc(F)c5)c(Cl)c4)c3c2)o1 [Lapatinib] (partner 2 µM) | 1.01 | 0.956 | 1.01 | 0.816 | 0.986 | 0.917 | 1.14 | 0.831 | 0.983 | 0.701 | 0.682 | 0.711 | 0.951 | 0.777 | 0.956 | 0.339 | 1.09 | 1.06 | 0.96 | 0.775 | relative viability ([6]; first compound 0.04 µM): 1.24; relative viability ([6]; first compound 0.1265 µM): 1.1; relative viability ([6]; first compound 0.4 µM): 0.955; relative viability ([6]; first compound 4 µM): 0.688; relative viability ([7]; first compound 0.04 µM): 0.255; relative viability ([7]; first compound 0.1265 µM): 0.219; relative viability ([7]; first compound 0.4 µM): 0.214; relative viability ([7]; first compound 4 µM): 0.208
3 | C[C@@H]1CN(CC(=O)Nc2ccc3c(c2)Cc2cccc(-c4cc(=O)cc(N5CCOCC5)o4)c2S3)C[C@H](C)O1 + CS(=O)(=O)N1CCN(Cc2cc3nc(-c4cccc5[nH]ncc45)nc(N4CCOCC4)c3s2)CC1 [Pictilisib] (partner 1 µM) | 0.898 | 0.739 | 0.848 | 0.689 | 0.524 | 0.594 | 0.444 | 0.323 | 0.329 | 0.281 | 0.31 | 0.374 | 0.3 | 0.372 | 0.301 | 0.234 | 0.962 | 0.97 | 0.925 | 0.8 | relative viability ([6]; first compound 0.04 µM): 0.249; relative viability ([6]; first compound 0.1265 µM): 0.243; relative viability ([6]; first compound 0.4 µM): 0.238; relative viability ([6]; first compound 4 µM): 0.205; relative viability ([7]; first compound 0.04 µM): 0.487; relative viability ([7]; first compound 0.1265 µM): 0.412; relative viability ([7]; first compound 0.4 µM): 0.244; relative viability ([7]; first compound 4 µM): 0.266
4 | C[C@@H]1CN(CC(=O)Nc2ccc3c(c2)Cc2cccc(-c4cc(=O)cc(N5CCOCC5)o4)c2S3)C[C@H](C)O1 + C[C@@H](Oc1cc(-c2cnn(C3CCNCC3)c2)cnc1N)c1c(Cl)ccc(F)c1Cl [Crizotinib] (partner 1 µM) | 0.915 | 0.92 | 0.844 | 0.837 | 0.909 | 0.772 | 0.874 | 0.522 | 0.64 | 0.711 | 0.497 | 0.534 | 1.02 | 0.671 | 0.657 | 0.36 | 0.829 | 0.719 | 0.597 | 0.528 | relative viability ([6]; first compound 0.04 µM): 0.607; relative viability ([6]; first compound 0.1265 µM): 0.678; relative viability ([6]; first compound 0.4 µM): 0.595; relative viability ([6]; first compound 4 µM): 0.513; relative viability ([7]; first compound 0.04 µM): 0.202; relative viability ([7]; first compound 0.1265 µM): 0.203; relative viability ([7]; first compound 0.4 µM): 0.201; relative viability ([7]; first compound 4 µM): 0.2
5 | C[C@@H]1CN(CC(=O)Nc2ccc3c(c2)Cc2cccc(-c4cc(=O)cc(N5CCOCC5)o4)c2S3)C[C@H](C)O1 + C[C@]1(O)C[C@@H](c2nc(-c3ccc4ccc(-c5ccccc5)nc4c3)c3c(N)nccn32)C1 [Linsitinib] (partner 1 µM) | 1.01 | 0.978 | 0.964 | 0.822 | 0.471 | 0.709 | 0.58 | 0.488 | 1.1 | 0.83 | 0.748 | 0.837 | 0.713 | 0.549 | 0.528 | 0.283 | 0.858 | 0.911 | 0.938 | 0.673 | relative viability ([6]; first compound 0.04 µM): 0.853; relative viability ([6]; first compound 0.1265 µM): 1.24; relative viability ([6]; first compound 0.4 µM): 0.549; relative viability ([6]; first compound 4 µM): 0.492; relative viability ([7]; first compound 0.04 µM): 1.01; relative viability ([7]; first compound 0.1265 µM): 0.867; relative viability ([7]; first compound 0.4 µM): 0.84; relative viability ([7]; first compound 4 µM): 0.599
6 | C[C@@H]1CN(CC(=O)Nc2ccc3c(c2)Cc2cccc(-c4cc(=O)cc(N5CCOCC5)o4)c2S3)C[C@H](C)O1 + Cc1nc(NC(=O)N2CCC[C@H]2C(N)=O)sc1-c1ccnc(C(C)(C)C(F)(F)F)c1 [Alpelisib] (partner 2 µM) | 1.02 | 1.05 | 1.05 | 1.02 | 0.776 | 0.753 | 0.826 | 0.457 | 0.974 | 0.917 | 0.535 | 0.854 | 0.884 | 0.801 | 0.895 | 0.387 | 1.03 | 1.03 | 0.97 | 0.79 | relative viability ([6]; first compound 0.04 µM): 0.426; relative viability ([6]; first compound 0.1265 µM): 0.33; relative viability ([6]; first compound 0.4 µM): 0.299; relative viability ([6]; first compound 4 µM): 0.277; relative viability ([7]; first compound 0.04 µM): 0.905; relative viability ([7]; first compound 0.1265 µM): 0.826; relative viability ([7]; first compound 0.4 µM): 0.386; relative viability ([7]; first compound 4 µM): 0.506
7 | CC(C)Oc1cc(Nc2nc(N[C@@H](C)c3ccc(F)cn3)ncc2Cl)n[nH]1 [AZ23] + CC1(C)CCC(c2ccc(Cl)cc2)=C(CN2CCN(c3ccc(C(=O)NS(=O)(=O)c4ccc(N[C@H](CCN5CCOCC5)CSc5ccccc5)c(S(=O)(=O)C(F)(F)F)c4)cc3)CC2)C1 [Navitoclax] (partner 0.5 µM) |  |  |  |  |  |  |  |  |  |  |  |  |  |  |  |  |  |  |  |  | relative viability ([1]; first compound 0.01 µM): 1.08; relative viability ([1]; first compound 0.03162 µM): 1.04; relative viability ([1]; first compound 0.3162 µM): 1.08; relative viability ([2]; first compound 0.01 µM): 1.58; relative viability ([2]; first compound 0.03162 µM): 1.48; relative viability ([2]; first compound 0.3162 µM): 1.2; relative viability ([3]; first compound 0.01 µM): 0.972; relative viability ([3]; first compound 0.03162 µM): 1.31; relative viability ([3]; first compound 0.3162 µM): 1.08; relative viability ([4]; first compound 0.01 µM): 0.837; relative viability ([4]; first compound 0.03162 µM): 0.97; relative viability ([4]; first compound 0.3162 µM): 0.848; relative viability ([5]; first compound 0.03162 µM): 0.952; relative viability ([5]; first compound 0.3162 µM): 0.739; relative viability ([6]; first compound 0.03162 µM): 1.13; relative viability ([6]; first compound 0.3162 µM): 1.08; relative viability ([7]; first compound 0.01 µM): 0.37; relative viability ([7]; first compound 0.03162 µM): 0.451; relative viability ([7]; first compound 0.3162 µM): 0.371
8 | CC(C)Oc1cc(Nc2nc(N[C@@H](C)c3ccc(F)cn3)ncc2Cl)n[nH]1 [AZ23] + CC(C)C[C@H](NC(=O)[C@H](Cc1ccccc1)NC(=O)c1cnccn1)B(O)O [Bortezomib] (partner 0.002 µM) |  |  |  |  |  |  |  |  |  |  |  |  |  |  |  |  |  |  |  |  | relative viability ([1]; first compound 0.01 µM): 1.03; relative viability ([1]; first compound 0.03162 µM): 1.02; relative viability ([1]; first compound 0.3162 µM): 1.1; relative viability ([3]; first compound 0.01 µM): 0.434; relative viability ([3]; first compound 0.03162 µM): 0.591; relative viability ([3]; first compound 0.3162 µM): 0.495; relative viability ([4]; first compound 0.01 µM): 1; relative viability ([4]; first compound 0.03162 µM): 0.883; relative viability ([4]; first compound 0.3162 µM): 0.776; relative viability ([5]; first compound 0.03162 µM): 1.15; relative viability ([5]; first compound 0.3162 µM): 1.04; relative viability ([6]; first compound 0.03162 µM): 0.367; relative viability ([6]; first compound 0.3162 µM): 0.363; relative viability ([7]; first compound 0.01 µM): 0.579; relative viability ([7]; first compound 0.03162 µM): 0.64; relative viability ([7]; first compound 0.3162 µM): 0.493
